Laboratory results published in PMC5159558 (Nucleic Acids Research, 2016).

Legend:
RET1ΔNC = biological target: T1, RET1ΔNC (Trypanosoma brucei, UniProt Q8WQX5); test: X-ray crystal structure, […] Å; format: binding; details: 0.5 mM UMPnPP, 1 mM MgCl2; active site; non-hydrolysable UTP analogue
T1 sequence (Q8WQX5 189-699): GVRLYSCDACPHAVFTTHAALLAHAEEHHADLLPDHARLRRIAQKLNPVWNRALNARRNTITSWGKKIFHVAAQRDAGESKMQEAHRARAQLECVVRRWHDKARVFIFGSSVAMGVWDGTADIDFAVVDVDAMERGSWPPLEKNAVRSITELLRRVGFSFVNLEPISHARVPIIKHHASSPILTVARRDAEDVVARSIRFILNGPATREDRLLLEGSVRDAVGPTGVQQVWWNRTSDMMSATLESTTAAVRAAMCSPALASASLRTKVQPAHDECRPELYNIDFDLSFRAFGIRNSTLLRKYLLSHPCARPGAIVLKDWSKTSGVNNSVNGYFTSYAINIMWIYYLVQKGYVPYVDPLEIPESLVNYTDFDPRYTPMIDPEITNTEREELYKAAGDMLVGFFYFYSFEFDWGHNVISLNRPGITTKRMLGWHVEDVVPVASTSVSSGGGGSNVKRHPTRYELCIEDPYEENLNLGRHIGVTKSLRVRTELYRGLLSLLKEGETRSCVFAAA

TUT4 = biological target: T2, TUT4 (Trypanosoma brucei, UniProt Q381M1); test: X-ray crystal structure, […] Å; format: binding; details: Mg2+
T2 sequence (Q381M1 1-333): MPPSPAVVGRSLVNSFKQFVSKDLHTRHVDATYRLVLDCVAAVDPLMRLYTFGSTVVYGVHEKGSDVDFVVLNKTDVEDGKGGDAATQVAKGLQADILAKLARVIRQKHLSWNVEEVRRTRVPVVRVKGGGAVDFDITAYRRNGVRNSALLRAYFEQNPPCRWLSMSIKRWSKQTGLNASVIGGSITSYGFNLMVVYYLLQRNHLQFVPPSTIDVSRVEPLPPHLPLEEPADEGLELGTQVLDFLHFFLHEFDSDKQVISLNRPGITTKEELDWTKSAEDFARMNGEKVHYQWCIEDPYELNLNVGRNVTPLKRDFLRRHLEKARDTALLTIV

## O=c1ccn([C@@H]2O[C@H](COP(=O)(O)NP(=O)(O)OP(=O)(O)O)[C@@H](O)[C@H]2O)c(=O)[nH]1 [UMPnPP]
RET1ΔNC
  X-ray crystal structure, 1.8 Å (soaked crystals): Crystals of RET1ΔNC in complex with the UTP analog UMPNPP were obtained by soaking

## O=c1ccn([C@@H]2O[C@H](COP(=O)(O)OP(=O)(O)OP(=O)(O)O)[C@@H](O)[C@H]2O)c(=O)[nH]1 [UTP]
TUT4; ternary complex with UpU, co-crystallised with UTP
  X-ray crystal structure, 2.75 Å: structure of TUT4 from T. brucei with bound UTP and RNA-mimicking dinucleotide UpU

## O=c1ccn([C@@H]2O[C@H](COP(=O)(O)O[C@H]3[C@@H](O)[C@H](n4ccc(=O)[nH]c4=O)O[C@@H]3CO)[C@@H](O)[C@H]2O)c(=O)[nH]1 [UpU]
TUT4; ternary complex with UTP, crystals soaked in 1 mM UpU
  X-ray crystal structure, 2.75 Å: structure of TUT4 from T. brucei with bound UTP and RNA-mimicking dinucleotide UpU
